We go through one compound from patent US11572590B2, “Methods for evaluating tumor cell spheroids using 3D microfluidic cell culture device” (Dana-Farber Cancer Institute, Inc., priority 2017, dated 2023).

Read-outs that look alike come from different tables or passages of the source.

Common to all, as to experiment: SelectScreen Kinase Profiling, single point inhibition and IC50 for off-target kinases
Format in all cases: biochemical

Experiment [1] deals with T1, off-target kinases (Homo sapiens, UniProt P42680).
T1 sequence (P42680 1-631): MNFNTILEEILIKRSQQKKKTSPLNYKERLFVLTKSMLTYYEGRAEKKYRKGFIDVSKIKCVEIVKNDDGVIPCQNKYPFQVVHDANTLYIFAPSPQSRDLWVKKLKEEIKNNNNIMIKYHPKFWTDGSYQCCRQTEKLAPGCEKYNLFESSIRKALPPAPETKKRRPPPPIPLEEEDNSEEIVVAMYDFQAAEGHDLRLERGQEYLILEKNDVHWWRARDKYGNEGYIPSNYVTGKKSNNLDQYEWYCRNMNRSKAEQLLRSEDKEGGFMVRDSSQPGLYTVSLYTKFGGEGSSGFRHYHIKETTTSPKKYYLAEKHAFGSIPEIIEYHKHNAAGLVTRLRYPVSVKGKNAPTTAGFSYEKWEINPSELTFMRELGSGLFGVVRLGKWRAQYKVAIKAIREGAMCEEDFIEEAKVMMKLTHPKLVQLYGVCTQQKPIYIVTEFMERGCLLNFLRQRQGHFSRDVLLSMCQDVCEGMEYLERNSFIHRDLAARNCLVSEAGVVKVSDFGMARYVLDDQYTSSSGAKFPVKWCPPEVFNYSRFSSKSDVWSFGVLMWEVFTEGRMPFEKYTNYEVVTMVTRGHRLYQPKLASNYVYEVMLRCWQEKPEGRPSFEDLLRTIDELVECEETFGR
The note with it: TEC, LanthaScreen Binding.

In experiment [2] the target is T2, off-target kinases (Homo sapiens, UniProt Q8IW41).
T2 sequence (Q8IW41 1-473): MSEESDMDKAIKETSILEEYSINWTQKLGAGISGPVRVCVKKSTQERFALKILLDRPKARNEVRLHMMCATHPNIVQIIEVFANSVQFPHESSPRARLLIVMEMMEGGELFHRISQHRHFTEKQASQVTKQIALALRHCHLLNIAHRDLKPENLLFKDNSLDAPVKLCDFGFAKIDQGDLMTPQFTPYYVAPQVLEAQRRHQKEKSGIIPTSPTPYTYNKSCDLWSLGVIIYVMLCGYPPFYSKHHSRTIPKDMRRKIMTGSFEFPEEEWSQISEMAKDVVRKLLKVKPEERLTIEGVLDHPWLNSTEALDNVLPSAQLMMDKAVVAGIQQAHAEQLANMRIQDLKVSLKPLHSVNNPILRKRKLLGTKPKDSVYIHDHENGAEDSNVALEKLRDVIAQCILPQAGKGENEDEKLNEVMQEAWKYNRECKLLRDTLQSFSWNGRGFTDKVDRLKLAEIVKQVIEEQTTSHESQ
The note with it: MAPKAPK5 (PRAK), ZLYTE, ATP Km app.

Experiment [3] deals with off-target kinases (Homo sapiens, UniProt Q8N4C8). The settings on record: MINK1, ATP Km app, ZLYTE.
off-target kinases (Homo sapiens, UniProt Q8N4C8), sequence (Q8N4C8 whole entry): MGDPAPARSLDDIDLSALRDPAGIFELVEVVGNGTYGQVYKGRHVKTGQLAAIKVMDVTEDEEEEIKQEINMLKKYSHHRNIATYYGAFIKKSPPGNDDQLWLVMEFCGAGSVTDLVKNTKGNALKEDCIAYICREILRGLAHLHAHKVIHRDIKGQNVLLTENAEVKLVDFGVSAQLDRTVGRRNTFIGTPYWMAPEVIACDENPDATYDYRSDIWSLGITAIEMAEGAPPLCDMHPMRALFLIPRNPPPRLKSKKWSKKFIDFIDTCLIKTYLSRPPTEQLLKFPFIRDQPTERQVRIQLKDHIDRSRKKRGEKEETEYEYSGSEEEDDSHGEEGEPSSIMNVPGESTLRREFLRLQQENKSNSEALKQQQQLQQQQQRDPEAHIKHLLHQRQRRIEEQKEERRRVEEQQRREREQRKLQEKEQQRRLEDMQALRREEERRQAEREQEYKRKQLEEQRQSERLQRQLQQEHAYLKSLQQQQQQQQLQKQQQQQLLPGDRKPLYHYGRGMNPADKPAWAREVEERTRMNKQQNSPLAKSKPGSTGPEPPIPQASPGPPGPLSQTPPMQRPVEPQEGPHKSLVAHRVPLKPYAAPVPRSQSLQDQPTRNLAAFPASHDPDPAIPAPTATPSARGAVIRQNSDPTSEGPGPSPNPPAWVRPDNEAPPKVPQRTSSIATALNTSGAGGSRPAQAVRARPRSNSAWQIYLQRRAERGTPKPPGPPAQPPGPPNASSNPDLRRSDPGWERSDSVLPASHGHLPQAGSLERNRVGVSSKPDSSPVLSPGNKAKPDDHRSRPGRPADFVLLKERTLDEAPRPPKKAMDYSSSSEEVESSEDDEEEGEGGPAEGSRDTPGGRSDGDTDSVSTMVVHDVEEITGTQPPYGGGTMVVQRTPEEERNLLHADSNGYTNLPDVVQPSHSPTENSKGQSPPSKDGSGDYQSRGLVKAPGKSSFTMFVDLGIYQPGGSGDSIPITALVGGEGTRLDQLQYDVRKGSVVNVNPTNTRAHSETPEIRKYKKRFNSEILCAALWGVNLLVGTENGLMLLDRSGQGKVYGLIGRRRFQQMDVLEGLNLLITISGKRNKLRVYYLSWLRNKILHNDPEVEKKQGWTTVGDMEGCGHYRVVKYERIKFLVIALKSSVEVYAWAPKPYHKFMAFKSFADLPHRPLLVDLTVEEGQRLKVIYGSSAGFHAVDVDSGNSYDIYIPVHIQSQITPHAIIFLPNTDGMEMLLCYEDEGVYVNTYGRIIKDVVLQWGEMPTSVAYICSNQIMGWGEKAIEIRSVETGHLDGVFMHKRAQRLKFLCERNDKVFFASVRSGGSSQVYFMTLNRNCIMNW
Experiment [4] has as its target off-target kinases (Homo sapiens, UniProt Q9BWU1). The settings on record: CDK11 (Inactive); Cmpd1 1000 μM; LanthaScreen Binding.

off-target kinases (Homo sapiens, UniProt Q9BWU1), sequence (Q9BWU1 whole entry): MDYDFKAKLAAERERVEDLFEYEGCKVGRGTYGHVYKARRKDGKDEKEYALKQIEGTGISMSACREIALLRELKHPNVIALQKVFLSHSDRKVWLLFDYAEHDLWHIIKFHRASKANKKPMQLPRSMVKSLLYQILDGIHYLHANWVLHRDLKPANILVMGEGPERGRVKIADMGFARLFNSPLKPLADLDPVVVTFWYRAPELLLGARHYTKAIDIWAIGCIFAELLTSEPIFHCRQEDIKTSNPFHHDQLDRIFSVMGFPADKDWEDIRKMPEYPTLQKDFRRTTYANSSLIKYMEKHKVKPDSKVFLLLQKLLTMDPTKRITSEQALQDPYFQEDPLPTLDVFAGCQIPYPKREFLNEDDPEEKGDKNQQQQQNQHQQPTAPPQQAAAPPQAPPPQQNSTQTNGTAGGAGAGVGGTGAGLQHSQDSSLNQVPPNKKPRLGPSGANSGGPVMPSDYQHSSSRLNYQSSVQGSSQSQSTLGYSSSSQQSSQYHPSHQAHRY

Regarding `N#Cc1cc(-c2ncnc(Nc3ccc(N4CCN(C5COC5)CC4)cc3)n2)ccc1OC1CCOCC1` [Compound 1, 5-(4-((4-(4-(oxetan-3-yl)piperazin-1-yl)phenyl)amino)-1,3,5-triazin-2-yl)-2-((tetrahydro-2H-pyran-4-yl)oxy)benzonitrile], the inhibition was 0% on off-target kinases [1] (read-out: % Inhibition 1); 2% at off-target kinases [1] (read-out: % Inhibition 2); 1% at off-target kinases [1] (read-out: % Inhibition Avg); 6% at off-target kinases [2] (read-out: % Inhibition 1); 7% at off-target kinases [2] (read-out: % Inhibition 2); 6% on off-target kinases [2] (read-out: % Inhibition Avg). Further, the inhibition at off-target kinases [3] (read-out: % Inhibition 1) was determined as 66%; at off-target kinases [3] (read-out: % Inhibition 2), 70%; on off-target kinases [3] (read-out: % Inhibition Avg) it was 68%. Besides, the “% Inhibition 1” value at off-target kinases [4] is listed as −1%. Moreover, the “% Inhibition 2” value at off-target kinases [4] is −7%. In addition, the “% Inhibition Avg” value at off-target kinases [4] is −4%.
